{"source": "ChEMBL document CHEMBL5523682", "about": "“The formyl peptide receptors FPR1 and FPR2 as targets for inflammatory disorders: recent advances in the development of small-molecule agonists” (Eur J Med Chem, 2024)", "key": {"[1]": {"experiment": "Metabolic stability in rat liver microsomes assessed as compound remaining after 30 mins incubation", "type": "ADME, Microsome", "details": "read-out: Stability"}, "fMet-Leu-Phe receptor [2]": {"biological_target": "T1, fMet-Leu-Phe receptor (Homo sapiens, UniProt P21462)", "T1 sequence (P21462 whole entry)": "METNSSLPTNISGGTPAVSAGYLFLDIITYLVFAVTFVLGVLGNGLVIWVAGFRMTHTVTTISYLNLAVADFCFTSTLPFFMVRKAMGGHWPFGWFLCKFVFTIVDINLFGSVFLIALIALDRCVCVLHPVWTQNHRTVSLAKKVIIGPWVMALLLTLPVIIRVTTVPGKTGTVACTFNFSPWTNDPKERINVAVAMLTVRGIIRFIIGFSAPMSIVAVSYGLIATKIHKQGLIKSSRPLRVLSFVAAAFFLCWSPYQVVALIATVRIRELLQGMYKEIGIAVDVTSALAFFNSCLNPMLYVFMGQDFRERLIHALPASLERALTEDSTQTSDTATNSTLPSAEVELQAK", "experiment": "Agonist activity at FPR1 (unknown origin) transfected in CHO cells by cAMP assay", "type": "functional, cell-based"}, "[3]": {"experiment": "Permeability of compound in PBS buffer at pH 5.5 by UPLC-MS spectrometry based PAMPA assay", "type": "ADME", "details": "read-out: permeability"}, "[4]": {"biological_target": "T2, N-formyl peptide receptor 2 (Homo sapiens, UniProt P25090)", "T2 sequence (P25090 whole entry)": "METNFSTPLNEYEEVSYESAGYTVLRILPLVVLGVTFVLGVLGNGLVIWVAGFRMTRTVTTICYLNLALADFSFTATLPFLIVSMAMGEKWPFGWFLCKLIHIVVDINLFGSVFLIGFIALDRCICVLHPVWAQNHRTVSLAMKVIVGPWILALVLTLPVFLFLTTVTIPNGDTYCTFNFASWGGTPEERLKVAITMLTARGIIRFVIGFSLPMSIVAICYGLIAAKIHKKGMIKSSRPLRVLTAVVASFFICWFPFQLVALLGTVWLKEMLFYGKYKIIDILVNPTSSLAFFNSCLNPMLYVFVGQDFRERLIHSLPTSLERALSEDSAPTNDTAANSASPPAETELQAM", "experiment": "Agonist activity at FPR2 (unknown origin) transfected in CHO cells by cAMP assay", "type": "functional, cell-based"}, "[5]": {"biological_target": "T2, N-formyl peptide receptor 2", "experiment": "Agonist activity at FPR2 (unknown origin) in HEK293 cells", "type": "functional, cell-based"}, "[6]": {"experiment": "Oral bioavailability in human at 1 mg/kg", "type": "ADME, organism-based", "details": "in vivo"}, "fMet-Leu-Phe receptor [7]": {"biological_target": "T3, fMet-Leu-Phe receptor (Mus musculus, UniProt P33766)", "T3 sequence (P33766 whole entry)": "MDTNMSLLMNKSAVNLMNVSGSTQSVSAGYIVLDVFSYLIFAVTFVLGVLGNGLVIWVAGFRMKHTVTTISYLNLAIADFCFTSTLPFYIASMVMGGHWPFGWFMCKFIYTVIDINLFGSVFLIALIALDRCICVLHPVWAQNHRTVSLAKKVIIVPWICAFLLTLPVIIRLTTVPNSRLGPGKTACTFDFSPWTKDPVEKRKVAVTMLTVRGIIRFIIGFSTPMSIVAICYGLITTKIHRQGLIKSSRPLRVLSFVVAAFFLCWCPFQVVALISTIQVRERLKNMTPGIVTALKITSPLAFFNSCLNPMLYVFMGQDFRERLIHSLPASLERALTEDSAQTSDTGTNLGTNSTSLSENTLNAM", "experiment": "Agonist activity at mouse FPR1", "type": "functional"}, "fMet-Leu-Phe receptor [8]": {"biological_target": "T1, fMet-Leu-Phe receptor", "experiment": "Agonist activity at human FPR1", "type": "functional"}, "[9]": {"biological_target": "T2, N-formyl peptide receptor 2", "experiment": "Agonist activity at human FPR2", "type": "functional"}, "[10]": {"biological_target": "T4, Formyl peptide receptor 2 (Mus musculus, UniProt O88536)", "T4 sequence (O88536 whole entry)": "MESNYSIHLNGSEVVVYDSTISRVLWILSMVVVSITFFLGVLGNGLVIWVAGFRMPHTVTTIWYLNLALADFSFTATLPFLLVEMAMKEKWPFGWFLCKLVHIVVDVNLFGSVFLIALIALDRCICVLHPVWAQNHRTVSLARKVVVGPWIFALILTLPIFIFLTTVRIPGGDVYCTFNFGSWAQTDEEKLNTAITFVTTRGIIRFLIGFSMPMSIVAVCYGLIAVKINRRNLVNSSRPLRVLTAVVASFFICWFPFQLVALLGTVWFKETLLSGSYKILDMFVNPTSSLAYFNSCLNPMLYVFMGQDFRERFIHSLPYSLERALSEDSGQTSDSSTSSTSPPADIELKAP", "experiment": "Agonist activity at mouse FPR2"}, "fMet-Leu-Phe receptor [11]": {"biological_target": "T1, fMet-Leu-Phe receptor", "experiment": "Agonist activity at FPR1 (unknown origin) transfected in human HL60 cells assessed as calcium mobilization incubated for 30 mins and measured for 15 mins by fluorometry method", "type": "functional, cell-based, HL-60"}, "[12]": {"biological_target": "T2, N-formyl peptide receptor 2", "experiment": "Agonist activity at FPR2 (unknown origin) expressed in CHO cells assessed as Calcium mobilization incubated for 30 min by fluorometry method", "type": "functional, cell-based"}, "fMet-Leu-Phe receptor [13]": {"biological_target": "T1, fMet-Leu-Phe receptor", "experiment": "Agonist activity at FPR1 (unknown origin) transfected in CHO cells assessed as increase in calcium mobilization by Fluo-4AM dye based assay", "type": "functional, cell-based"}, "[14]": {"biological_target": "T2, N-formyl peptide receptor 2", "experiment": "Agonist activity at FPR2 (unknown origin) transfected in CHO cells assessed as increase in calcium mobilization by Fluo-4AM dye based assay", "type": "functional, cell-based"}, "[15]": {"experiment": "Half life in rat liver microsomes measured upto 60 mins by LC-MS/MS analysis", "type": "ADME, Microsome", "details": "1 h"}, "[16]": {"experiment": "Intrinsic clearance in rat liver microsomes", "type": "ADME, Microsome"}, "fMet-Leu-Phe receptor [17]": {"biological_target": "T1, fMet-Leu-Phe receptor", "experiment": "Agonist activity against human FPR1 expressed in HL-60 cells by Fluo4-AM dye based intracellular calcium flux assay", "type": "functional, cell-based"}, "[18]": {"biological_target": "T2, N-formyl peptide receptor 2", "experiment": "Agonist activity at human FPR2 expressed in HL-60 cells by Fluo4-AM dye based intracellular calcium flux assay", "type": "functional, cell-based"}, "fMet-Leu-Phe receptor [19]": {"biological_target": "T3, fMet-Leu-Phe receptor", "experiment": "Binding affinity to mouse FPR1 expressed in CHO cells assessed as dissociation constant", "type": "cell-based"}, "[20]": {"biological_target": "T2, N-formyl peptide receptor 2", "experiment": "Binding affinity to human FPR2 expressed in CHO cells assessed as dissociation constant", "type": "cell-based"}}, "note": "Where a SMILES comes first, the peptide text is derived from it. The star is where a group is joined. For = O=C*", "data": [{"compound": "N#Cc1ccc(C[C@@H](NC(=O)Nc2ccc(F)cc2)C(=O)NCC2(c3ccc(F)c(Cl)c3)CC2)cc1", "values": [{"measurement": "remaining at 0.5 h", "setting": "[1]", "value": 20, "unit": "%"}]}, {"compound": "COc1cc(F)c([C@@H]2CNC(=O)[C@H]2Nc2cc(-c3ccc(Cl)cc3)no2)c(F)c1", "values": [{"measurement": "EC50", "setting": "fMet-Leu-Phe receptor [2]", "value": 470, "unit": "nM"}, {"measurement": "Papp", "setting": "[3]", "value": 110, "unit": "×10⁻⁶ cm/s"}, {"measurement": "EC50", "setting": "[4]", "value": 10, "unit": "nM"}]}, {"compound": "O=C(NCc1ccc(Br)cc1F)[C@@H]1C2CCC([C@H]1C(=O)NC1CCNCC1F)C21CC1", "note": "(stereo partly drawn)", "values": [{"measurement": "EC50", "setting": "[5]", "value": 2, "unit": "nM"}, {"measurement": "bioavailability", "setting": "[6]", "value": 12, "unit": "%"}]}, {"compound": "CC[C@H](C)[C@H](NC(=O)[C@@H](NC(=O)[C@H](Cc1ccccc1)NC(=O)[C@H](CC(C)C)NC(=O)[C@H](CCSC)NC=O)[C@@H](C)CC)C(=O)O", "note": "(For-MLFII-OH)", "values": [{"measurement": "EC50", "setting": "fMet-Leu-Phe receptor [7]", "value": 0.03, "unit": "nM"}, {"measurement": "EC50", "setting": "fMet-Leu-Phe receptor [8]", "value": 1400, "unit": "nM"}, {"measurement": "EC50", "setting": "[9]", "value": 3.8, "unit": "nM"}, {"measurement": "EC50", "setting": "[10]", "value": 910, "unit": "nM"}]}, {"compound": "Ac-AMVSEFLKQAWIENEEQEYVVQTVK-OH", "values": [{"measurement": "EC50", "setting": "fMet-Leu-Phe receptor [11]", "value": 1400, "unit": "nM"}, {"measurement": "EC50", "setting": "[12]", "value": 1800, "unit": "nM"}]}, {"compound": "CC(C)C[C@H](NC(=O)CNC(=O)Nc1ccc(Br)cc1)C(=O)OC(C)(C)C", "values": [{"measurement": "EC50", "setting": "fMet-Leu-Phe receptor [13]", "value": 2300, "unit": "nM"}, {"measurement": "EC50", "setting": "[14]", "value": 600, "unit": "nM"}]}, {"compound": "N#Cc1ccc(C[C@H](NC(=O)Nc2ccc(F)cc2)C(=O)NCC2(c3ccc(F)c(Cl)c3)CC2)cc1", "values": [{"measurement": "t1/2", "setting": "[15]", "value": 48, "unit": "min"}, {"measurement": "CLH", "setting": "[16]", "value": 15, "unit": "µL/min/mg"}]}, {"compound": "COc1cccc(Cc2cc(C)nn(CC(=S)Nc3ccccc3)c2=O)c1", "values": [{"measurement": "EC50", "setting": "fMet-Leu-Phe receptor [17]", "value": "> 50000", "unit": "nM"}, {"measurement": "EC50", "setting": "[18]", "value": "> 50000", "unit": "nM"}]}, {"compound": "O=C(Nc1ccc(Br)cc1)[C@@H]1C2CCC([C@@H]1C(=O)O)C21CC1", "note": "(stereo partly drawn)", "values": [{"measurement": "EC50", "setting": "fMet-Leu-Phe receptor [2]", "value": 2200, "unit": "nM"}, {"measurement": "EC50", "setting": "[4]", "value": 280, "unit": "nM"}]}, {"compound": "CCCCC[C@H](O)[C@H](O)/C=C/C=C/C=C\\C=C\\[C@@H](O)CCCC(=O)O", "values": [{"measurement": "Kd", "setting": "fMet-Leu-Phe receptor [19]", "value": 1.5, "unit": "nM"}, {"measurement": "Kd", "setting": "[20]", "value": 1.7, "unit": "nM"}]}, {"compound": "O=C(NCc1ccc(Br)cc1F)[C@@H]1C2CCC([C@H]1C(=O)NC1CCNCC1)C21CC1", "note": "(stereo partly drawn)", "values": [{"measurement": "bioavailability", "setting": "[6]", "value": 0.3, "unit": "%"}]}]}
